Measurements reported in patent publication US20240009239A1, “THERAPEUTIC TARGETING OF MESOTHELIN IN ACUTE MYELOID LEUKEMIA WITH CHIMERIC ANTIGEN RECEPTOR T CELL THERAPY” (FRED HUTCHINSON CANCER CENTER, priority 2020, published 2024).

Tests used:
Nomo-1 cells = assay: Viability of Nomo-1 cells after GM6001 without CAR T cells; type: cell-based; details: GM6001 treatment, data not shown
Excerpt: FIGS. 2A-2D. […] FIGS. 2A-2B. […] FIG. 2C. […] FIG. 2D.
AML cell lines and GM6001 treatment.

[1] = tested on: ADAM17-mediated MSLN shedding; assay: Cell surface mesothelin on Nomo-1 by flow cytometry after GM6001; type: cell-based; details: Nomo-1 cells, GM6001 50 uM, 48 hours, vs DMSO control
Procedure: Cell surface abundance and viability were measured by flow cytometry (FIG. 2A) and shed MSLN was quantified by ELISA (FIG. 2B). […] Data presented are mean tumor specific lysis+/−standard deviation from 3 technical replicates at indicated E:T ratios for 3 independent experiments. […] Secreted levels of IFN-g (left panel) and TNF-a (right panel) were measured after 8 hours of T cell/AML co-culture at E:T 10:1 by ELISA. Data presented are mean+/−standard deviation from 3 technical replicates. Statistical significance was determined by unpaired Student's t test, assuming unequal variances. p<0.05(*), p<0.005(**), p<0.0005(***).
Nomo-1 and Kasumi-1 were obtained from ATCC and maintained in RPMI with FBS (10% for Nomo-1, 20% for Kasumi-1) and L-glutamine (2 mM). […] The Kasumi-1 MSLN+ cell line was engineered by transducing Kasumi-1 cells with a lentivirus encoding MSLN driven by the ELF1a promoter.
For in vivo CAR T study, Nomo-1 cells, which express endogenous level of MSLN, and Kasumi-1 cells engineered to express MSLN with a lentivirus construct (Kasumi-1 MSLN+) were transplanted into NSG mice. Mock transduced MSLN-directed CAR T cells were infused 1 week (Nomo-1) and 2 weeks (Kasumi-1 MSLN+) following leukemic cell injection. Leukemic burden was measured by bioluminescence IVIS imaging weekly.

Compound: CNC(=O)[C@H](Cc1c[nH]c2ccccc12)NC(=O)[C@@H](CC(=O)NO)CC(C)C [GM6001]
- cell viability of Nomo-1 cells in the absence of CAR T cells (Nomo-1 cells): did not significantly impact
- level of cell surface mesothelin [1]: increased
